In brackets after ≈: the same amount, converted by molar mass. Like-named read-outs stand apart in the source and are kept apart here.
Experiments:
[1] = target: LasB (Pseudomonas aeruginosa (strain ATCC 15692 / DSM 22644 / CIP 104116 / JCM 14847 / LMG 12228 / 1C / PRS 101 / PAO1), UniProt P14756); test: In vitro LasB activity assay (fluorogenic substrate); type: biochemical; settings: LasB 0.3 nM, substrate 150 μM, mean ± SD
How it was run: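 LasB (0.3 nM) preincubated 15 min at 37 °C with compound, then 150 µM Abz-Ala-Gly-Leu-Ala-p-nitrobenzylamide added in 50 mM Tris pH 7.2, 2.5 mM CaCl2, 0.075% Pluronic F-127, 5% DMSO. Fluorescence (ex 340, em 415 nm) followed 60 min at 37 °C. IC50 from blank-corrected v/v0 slopes, nonlinear regression, Hill slope fixed at 1.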

[2] = Kinetic turbidimetric solubility assay; type: physicochemical; settings: PBS
Description: The desired compounds were sequentially diluted in DMSO in a 96-well plate. 1.5 μL of each well were transferred into another 96-well plate and mixed with 148.5 μL of PBS. Plates were shaken for 5 min at 600 rpm at room temperature, and the absorbance at 620 nm was measured. Absorbance values were normalized by blank subtraction and plotted using GraphPad Prism 8.4.2 (GraphPad Software, San Diego, CA, USA). Solubility (S) was determined based on the First X value of AUC function using a threshold of 0.005.

[3] = in vitro; type: in vitro ADME; settings: mouse, s9
Description: For the evaluation of combined phase I and phase II metabolic stability, the compound (1 μM) was incubated with 1 mg/mL pooled liver S9 fraction (Xenotech), 2 mM NADPH, 1 mM UDPGA, 10 mM MgCl2, 5 mM GSH and 0.1 mM PAPS at 37° C. for 0, 5, 15, 30 and 60 min. The metabolic stability of Testosterone (1 μM), verapamil (1 μM) and ketoconazol (1 μM) were determined in parallel to confirm the enzymatic activity of the S9 fraction. The incubation was stopped by precipitation of S9 enzymes with 2 volumes of cold acetonitrile containing internal standard (150 nM Diphenhydramine). Samples were stored on ice for 10 min and precipitated protein was removed by centrifugation (15 min, 4° C., 4,000 rpm). The remaining test compound at different time points was analyzed by LC-MS/MS (TSQ Quantum Access MAX, Thermo Fisher, Dreieich, Germany) and used to determine half-life (t½).

[4] = target: MMP1 (Homo sapiens (Human), UniProt P03956); test: Selectivity assay: inhibition of MMPs; type: biochemical
Sequence of MMP1 (P03956 100-469): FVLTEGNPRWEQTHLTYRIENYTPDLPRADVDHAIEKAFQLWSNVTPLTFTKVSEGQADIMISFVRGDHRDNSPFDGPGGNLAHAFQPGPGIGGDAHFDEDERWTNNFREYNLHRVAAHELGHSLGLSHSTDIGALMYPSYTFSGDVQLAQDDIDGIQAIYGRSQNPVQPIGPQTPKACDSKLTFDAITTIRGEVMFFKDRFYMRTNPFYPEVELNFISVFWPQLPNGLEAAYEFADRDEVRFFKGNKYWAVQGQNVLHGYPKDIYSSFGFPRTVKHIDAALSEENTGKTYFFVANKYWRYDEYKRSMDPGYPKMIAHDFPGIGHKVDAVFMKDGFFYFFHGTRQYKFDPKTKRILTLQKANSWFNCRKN
Description: (§1) MMPs-1, -2, -3, -7, -8 and -14 along with the SensoLyte 520 Generic MMP Activity Kit*Fluorimetric* were purchased from AnaSpec (Fremont, CA, USA). The assay was performed as described previously (Schönauer E, Kany A M, Haupenthal J, Hüsecken K, Hoppe I J, Voos K, et al. Discovery of a Potent Inhibitor Class with High Selectivity toward Clostridial Collagenases. J Am Chem Soc. 2017 Sep. 13; 139(36):12696-703) using batimastat as a positive control according to the guidelines of the manufacturer.

[5] = target: MMP2 (Homo sapiens (Human), UniProt P08253); test: Selectivity assay: inhibition of MMPs; type: biochemical
Sequence of MMP2 (P08253 110-660): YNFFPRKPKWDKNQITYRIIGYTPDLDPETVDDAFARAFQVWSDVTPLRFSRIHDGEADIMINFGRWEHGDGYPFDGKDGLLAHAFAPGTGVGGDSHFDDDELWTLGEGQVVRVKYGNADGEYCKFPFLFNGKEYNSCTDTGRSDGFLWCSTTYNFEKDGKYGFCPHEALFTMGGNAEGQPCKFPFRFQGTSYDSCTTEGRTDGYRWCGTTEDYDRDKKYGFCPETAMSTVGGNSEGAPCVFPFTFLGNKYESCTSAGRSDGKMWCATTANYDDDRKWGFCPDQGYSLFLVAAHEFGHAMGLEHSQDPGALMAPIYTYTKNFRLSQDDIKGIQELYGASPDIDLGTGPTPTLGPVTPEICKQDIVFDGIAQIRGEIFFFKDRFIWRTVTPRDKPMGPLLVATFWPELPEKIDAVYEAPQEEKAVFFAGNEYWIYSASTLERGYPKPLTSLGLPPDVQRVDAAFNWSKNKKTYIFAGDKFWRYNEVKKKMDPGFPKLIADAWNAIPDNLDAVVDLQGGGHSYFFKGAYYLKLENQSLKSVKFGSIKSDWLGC
Description: as §1

[6] = target: MMP3 (Homo sapiens (Human), UniProt P08254); test: Selectivity assay: inhibition of MMPs; type: biochemical
Sequence of MMP3 (P08254 100-477): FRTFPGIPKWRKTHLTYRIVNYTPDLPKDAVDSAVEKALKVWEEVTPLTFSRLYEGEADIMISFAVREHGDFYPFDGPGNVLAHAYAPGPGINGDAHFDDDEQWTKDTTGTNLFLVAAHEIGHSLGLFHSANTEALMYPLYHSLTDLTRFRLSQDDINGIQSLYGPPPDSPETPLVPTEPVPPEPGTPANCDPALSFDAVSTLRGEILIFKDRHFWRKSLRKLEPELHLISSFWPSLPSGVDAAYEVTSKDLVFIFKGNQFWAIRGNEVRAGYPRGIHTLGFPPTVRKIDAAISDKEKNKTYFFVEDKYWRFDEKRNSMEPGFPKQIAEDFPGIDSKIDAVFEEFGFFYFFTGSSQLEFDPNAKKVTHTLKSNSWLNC
Description: as §1

[7] = target: HDAC3 (Homo sapiens (Human), UniProt O15379); test: HDAC inhibition; type: biochemical; settings: read-out: Selectivity IC50 HDAC3
Description: (§2) HDAC3 and HDAC8 Inhibitor Screening Assay kits were purchased from Sigma-Aldrich. The assay was performed according to the guidelines of the manufacturer using trichostatin as a positive control. Fluorescence signals were measured in a CLARIOstar plate reader (BMG Labtech).

[8] = target: HDAC8 (Homo sapiens (Human), UniProt Q9BY41); test: HDAC inhibition; type: biochemical; settings: read-out: Selectivity IC50 HDAC8
Sequence of HDAC8 (Q9BY41 whole entry): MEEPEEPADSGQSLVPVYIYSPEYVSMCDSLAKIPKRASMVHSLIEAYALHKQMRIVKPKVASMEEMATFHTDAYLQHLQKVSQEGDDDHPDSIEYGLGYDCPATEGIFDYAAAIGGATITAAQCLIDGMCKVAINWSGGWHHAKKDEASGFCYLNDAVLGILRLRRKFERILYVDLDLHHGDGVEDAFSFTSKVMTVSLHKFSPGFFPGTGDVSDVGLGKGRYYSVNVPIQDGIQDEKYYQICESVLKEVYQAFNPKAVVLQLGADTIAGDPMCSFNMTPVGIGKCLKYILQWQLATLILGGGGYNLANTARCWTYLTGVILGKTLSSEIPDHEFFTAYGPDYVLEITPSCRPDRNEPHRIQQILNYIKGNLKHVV
Description: as §2

[9] = target: ADAM-17 (TACE) (Homo sapiens (Human), UniProt P78536); test: ADAM-17 (TACE) inhibitor screening assay; type: biochemical; settings: read-out: Selectivity IC50 TACE
Sequence of ADAM-17 (TACE) (P78536 whole entry, looked up): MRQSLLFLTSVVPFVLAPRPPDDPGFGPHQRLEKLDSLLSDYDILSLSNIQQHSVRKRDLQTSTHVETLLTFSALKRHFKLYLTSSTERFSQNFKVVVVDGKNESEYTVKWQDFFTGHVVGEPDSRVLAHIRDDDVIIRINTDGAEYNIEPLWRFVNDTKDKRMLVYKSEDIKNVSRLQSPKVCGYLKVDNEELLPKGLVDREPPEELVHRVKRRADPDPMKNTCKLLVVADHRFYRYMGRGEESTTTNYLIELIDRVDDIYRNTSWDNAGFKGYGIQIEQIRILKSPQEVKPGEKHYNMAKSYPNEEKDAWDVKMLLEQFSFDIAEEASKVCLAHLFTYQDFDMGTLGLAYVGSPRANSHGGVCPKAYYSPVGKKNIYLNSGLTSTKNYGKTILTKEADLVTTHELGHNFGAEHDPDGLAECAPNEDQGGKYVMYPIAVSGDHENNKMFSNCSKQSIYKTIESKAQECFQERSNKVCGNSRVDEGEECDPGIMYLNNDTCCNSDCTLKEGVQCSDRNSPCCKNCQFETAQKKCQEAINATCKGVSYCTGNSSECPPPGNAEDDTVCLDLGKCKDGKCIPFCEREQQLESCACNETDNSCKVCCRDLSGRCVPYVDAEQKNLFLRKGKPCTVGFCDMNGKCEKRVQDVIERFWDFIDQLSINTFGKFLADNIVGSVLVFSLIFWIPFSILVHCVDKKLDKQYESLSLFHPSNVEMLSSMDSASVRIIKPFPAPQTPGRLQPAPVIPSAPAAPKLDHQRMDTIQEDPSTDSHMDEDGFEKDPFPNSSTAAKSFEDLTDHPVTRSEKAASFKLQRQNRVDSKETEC
Description: The ADAM-17 (TACE) Inhibitor Screening Assay Kit was purchased from Sigma-Aldrich. The assay was performed according to the guidelines of the manufacturer using ilomastat as a positive control. Fluorescence signals were measured in a CLARIOstar plate reader (BMG Labtech).

[10] = Cytotoxicity assay; type: cell-based; settings: human
Description: HepG2, HEK293 or A549 cells (2×10^5 cells per well) were seeded in 24-well, flat-bottomed plates. Culturing of cells, incubations, and OD measurements were performed as described previously (Int. J. Cancer 2007, 121, 206-210). Twenty-four hours after seeding the cells, the incubation was started by the addition of test compound in a final DMSO concentration of 1%. The living cell mass was determined after 48 h. At least two independent measurements were performed for each compound.

[11] = tested on: P. aeruginosa PA-14; test: MIC determination assay / antibacterial activity; type: cell-based; settings: Pseudomonas aeruginosa, PA14
Description: Assays regarding the determination of the minimum inhibitory concentration (MIC) were performed as described previously (Elgaher W A M, Fruth M, Groh M, Haupenthal J, Hartmann R W. Expanding the scaffold for bacterial RNA polymerase inhibitors: design, synthesis and structure-activity relationships of ureido-heterocyclic-carboxylic acids. RSC Adv. 2013 Dec. 3; 4(5):2177-94). The experiments were based on the P. aeruginosa strain PA14. For the case that no MIC value could be determined due to activity reasons, percentage (%) inhibition at 100 μM (or lower, depending on the solubility of the compounds) was calculated. The OD600 was measured 0 and 16 h after inhibitor addition in a CLARIOstar Platereader (BMG Labtech, Ortenberg, Germany).

[12] = target: purified LasB (Pseudomonas aeruginosa (strain ATCC 15692 / DSM 22644 / CIP 104116 / JCM 14847 / LMG 12228 / 1C / PRS 101 / PAO1), UniProt P14756); test: Ex vivo lung homogenate assay with purified LasB; type: biochemical
Sequence of purified LasB (P14756 198-498): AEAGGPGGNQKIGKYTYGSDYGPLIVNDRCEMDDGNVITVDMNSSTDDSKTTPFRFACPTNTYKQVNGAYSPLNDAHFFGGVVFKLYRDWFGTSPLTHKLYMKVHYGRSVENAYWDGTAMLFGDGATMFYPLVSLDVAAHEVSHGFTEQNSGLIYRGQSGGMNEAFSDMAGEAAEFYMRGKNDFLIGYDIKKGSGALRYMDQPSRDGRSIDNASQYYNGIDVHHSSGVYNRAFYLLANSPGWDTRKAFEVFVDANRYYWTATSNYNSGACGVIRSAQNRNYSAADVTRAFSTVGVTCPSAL
Description: The lung homogenate was prepared from pig lung, which was stored at −80° C. After thawing the lung tissue was cut into pieces of approximately 1.5 cm diameter and 0.5 to 1 cm thickness. Subsequently the bits were flash frozen in liquid nitrogen and lyophilized for 48 h.
1.2 g dried tissue was then ball milled using an IKA Tube Drive and the respective 50 mL ball milling tubes. 20 steel balls were used with target rpm of 6000, reversing the spinning direction every 30 seconds for a total of 10 min. After 10 min the tube was detached and inverted to loosen the powder. The ball milling was repeated with the same setup twice again.
To the powdery tissue 50 mL of a 10 mM Tris buffer including 2 mM CaCl2 with a pH of 8.0 was added and the IKA Tube Drive used again with the same settings as described before for 10 min to disperse the tissue powder in the aqueous buffer. The yielded lung homogenate was pipetted into 15 mL falcons and stored at −80° C. until further use.
To perform the LasB activity/inhibition assay a compound dilution was prepared in DMSO yielding a 100 fold concentration of the final concentration in the assay. LasB was diluted from a higher stock solution to a 6 μM stock in the same buffer as used for the lung homogenate. The assay was performed in Eppis. With a stepper pipette 10 μL of the prepared LasB solution was added to the Eppis to yield a final protein concentration of 300 nM. Then 188 μL of thawed lung homogenate was added with a stepper pipette. Finally, 2 μL of the 100 fold compound dilutions were added and mixed by pipetting up and down. The Eppis were incubated at 37° C. with a shaking speed of 1000 rpm for 4 h.
After 4 h, the Eppis were centrifuged at a speed of 14,000 rpm, 4° C. for 10 min to separate the soluble cleaved Elastin fragments from the non-cleaved insoluble part. 100 μL of the obtained supernatant was transferred to new Eppis, and the same volume of concentrated hydrochloric acid added. […]
Peak areas and response ratios were calculated using Xcalibur Quan browser with Amprolium set as internal standard. […]

[13] = aqueous buffer, kinetic from dmso stock

Sequence of LasB (P14756 198-498): as above

Row | SMILES | IC50 [1] [µM] | solubility at 5 min [2] [µM] | solubility at 5 min [2, 13] [µM] | half-life at 1 μM [3] [min] | IC50 [4] [µM] | IC50 [5] [µM] | IC50 [6] [µM] | IC50 [7] [µM] | IC50 [8] [µM] | IC50 [9] [µM] | IC50 at 48 h ([10]; A549 cells) [µM] | IC50 at 48 h ([10]; HEK293 cells) [µM] | IC50 at 48 h ([10]; HepG2 cells) [µM] | IC50 [11] [µM] | IC50 [12] [µM] | IC50 ([12]; pig lung homogenate, 300 nM LasB, 4 h, desmosine LC-MSMS, read-out: IC50 ex vivo lung homogenate) [µM]
1 | CC(C)CC(C(=O)NO)C(=O)Nc1ccc(Cn2cc(CNS(=O)(=O)c3ccc(I)cc3)nn2)cc1 (stereo not drawn) [Hit L1, 2-(Hydroxycarbamoyl)-N-[4-[[4-[[(4-iodophenyl)sulfonylamino]methyl]triazol-1-yl]methyl]phenyl]-4-methyl-pentanamide] | 0.0024 ± 0.0001 | 142 (≈ 89 µg/mL) | 106 ± 19 (≈ 66.4 µg/mL) | 30.1 ± 1.5 | > 100 | > 100 | > 100 | > 100 | > 100 | > 100 | > 100 | > 100 | > 100 | > 100 |  | 
2 | CC(C)CC(C(=O)NO)C(=O)Nc1ccc(Cn2cc(CNS(=O)(=O)c3ccc(Cl)cc3)nn2)cc1 (stereo not drawn) [Compound 161, N-[4-[[4-[[(4-Chlorophenyl)sulfonylamino]methyl]triazol-1-yl]methyl]phenyl]-2-(hydroxycarbamoyl)-4-methyl-pentanamide] | 0.0017 ± 0.0001 |  | > 200 | 33.9 ± 1 |  |  |  |  |  |  |  |  |  |  | 0.186 | 
3 | CC(C)C(C(=O)NO)C(=O)Nc1ccc(Cn2cc(CNS(=O)(=O)c3ccc(I)cc3)nn2)cc1 (stereo not drawn) [Compound 182, 2-(Hydroxycarbamoyl)-N-[4-[[4-[[(4-iodophenyl)sulfonylamino]methyl]triazol-1-yl]methyl]phenyl]-3-methyl-butanamide] | 0.0019 ± 0.0001 |  |  |  |  |  |  |  |  |  |  |  |  |  |  | 0.127
4 | CC(C)CC(C(=O)NO)C(=O)Nc1ccc(Cn2cc(CNS(=O)(=O)c3ccc(F)cc3)nn2)cc1 (stereo not drawn) [Compound 160, N-[4-[[4-[[(4-Fluorophenyl)sulfonylamino]methyl]triazol-1-yl]methyl]phenyl]-2-(hydroxycarbamoyl)-4-methyl-pentanamide] | 0.0038 ± 0.0001 |  | > 200 | 65.5 ± 0.7 | > 100 | > 100 | > 100 | > 100 | > 100 | > 100 | > 100 | > 100 | > 100 | > 100 |  | 

From patent US20250170104A1, “INHIBITORS OF PSEUDOMONAS AERUGINOSA VIRULENCE FACTOR Lasß” (priority 2022, published 2025)
